The text below walks through data of patent US7160916B2, “Method of increasing bone density or treating osteoporosis” (Yung Shin Pharmaceutical Ind. Co., Ltd., priority 2003, dated 2007).

In test [1] the test system is ovariectomized adult female rats. The test is described as follows: Biomechanical three-point bending test of femurs of OVX rats. The format is in vivo, rat. Here is the method: Ovariectomy and cut of sciatic nerve: Ovariectomy and cut of sciatic nerve were performed in adult female and male rats (3 month-old), respectively. After surgery, the rats were injected with Indazole 1 (i.p., 1 mg/Kg) or a vehicle daily for 4 weeks. On the day following the last injection, the rats were sacrificed and their tibia and femur were removed. Biomechanical three-point bending test: Mechanical properties of bone tissues were measured via a three-point bending test using a MTS-858 testing machine (MTS System Inc., Minneapolis, Minn.). The span of two support points was 20 millimeters and the deformation rate was 1 mm/min. Load/deformation curves were acquired by Team 490 software (version 4.10, Nicolet Instrument Technologies Inc., Madison, Wis.). Sigma Plot 6.0 software (SPSS Inc., Chicago, Ill.) was used to calculate extrinsic material properties of bone samples, including maximal load, ultimate load, energy to maximal load, energy to ultimate load, and linear stiffness. Energy to maximal load and energy to ultimate load were calculated as the areas under the load/deforming curves. Stiffness was calculated as the slope of the linear portion of the load/deformation curves. The cross-sectional moment of inertia was calculated under the assumption that the cross-sections were elliptically shaped (Turner et al., The effects of fluoridated water on bone strength. Orthop Res (1992) 10: 581–587). Maximal stress, ultimate stress, and elastic modulus (Young's modulus) were calculated using the methods described in Turner et al., Basic biomechanical measurements of bone: a tutorial, Bone (1993) 14:595–608.

For test [2], the system named is Primary osteoblast cells. Briefly: Assay of alkaline phosphatase activity in cultured osteoblasts. The format is cell-based, rat. How it is done:
Primary osteoblast cultures: Primary osteoblast cells were prepared from calvaria of 18-day-old fetal Sprague-Dawley (SD) rats according to the following method: Pregnant rats were put in anesthesia using intraperitoneal injection of trichloroacetaldehyde (200 mg/kg). The calvaria of the fetal rats were then dissected with aseptic technique. Soft tissues were removed under a dissecting microscope. The calvaria were divided into small pieces and then treated with 0.1% collagenase (Sigma Chemical, St. Louis, Mo.) solution for 10 minutes at 37° C. The cells released from the calvariae by two 20-minute sequential collagenase digestions were pooled and filtered through 70 μm nylon filters (Falcon, BD BioSciences, San Jose, Calif.). The cells were then grown on plastic cell culture dishes in 95:5 air-CO2 with Dulbecco's modified Eagle's medium (DMEM) (Gibco, Grand Island, N.Y.) which was supplemented with 20 mM HEPES and 10% heat-inactivated FCS, 2 mM-glutamine, penicillin (100 U/ml) and streptomycin (100 μg/ml) (pH adjusted to 7.6). The cell medium was changed twice a week. Osteoblasts were confirmed by morphology and expression of alkaline phosphatase (ALP). To examine the maturation of osteoblasts, cells were cultured for up to 14 days in a growth medium containing ascorbic acid (50 μg/ml) (Sigma Chemical, St. Louis, Mo.) and β-glycerophosphate (10 mM) (Sigma Chemical, St. Louis, Mo.) and the medium was changed every 3 day. Assay of alkalinephosphatase activity: Cells cultured in 6-well plates in the presence or absence of Indazole 1 were harvested in 1 ml of 0.2% Nonidet P-40 and cell suspension was disrupted by sonication. After centrifugation at 1500 g for 5 min, ALP activity in the supernatant was measured by the method of Lowry et al (1954) J Biol Chem 207:19–37.

The test system of test [3] is Osteoblasts. Briefly: Assay of cell proliferation (BrdU incorporation). In kind it is cell-based, rat. Here is the method: Primary osteoblast cultures: Primary osteoblast cells were prepared from calvaria of 18-day-old fetal Sprague-Dawley (SD) rats according to the following method: Pregnant rats were put in anesthesia using intraperitoneal injection of trichloroacetaldehyde (200 mg/kg). The calvaria of the fetal rats were then dissected with aseptic technique. Soft tissues were removed under a dissecting microscope. The calvaria were divided into small pieces and then treated with 0.1% collagenase (Sigma Chemical, St. Louis, Mo.) solution for 10 minutes at 37° C. The cells released from the calvariae by two 20-minute sequential collagenase digestions were pooled and filtered through 70 μm nylon filters (Falcon, BD BioSciences, San Jose, Calif.). The cells were then grown on plastic cell culture dishes in 95:5 air-CO2 with Dulbecco's modified Eagle's medium (DMEM) (Gibco, Grand Island, N.Y.) which was supplemented with 20 mM HEPES and 10% heat-inactivated FCS, 2 mM-glutamine, penicillin (100 U/ml) and streptomycin (100 μg/ml) (pH adjusted to 7.6). The cell medium was changed twice a week. Osteoblasts were confirmed by morphology and expression of alkaline phosphatase (ALP). […] BrdU incorporation was assayed according to the protocol of enzyme-linked immunosorbent assay chemiluminescence detection kit (Roche Molecular Biochemicals) using a luminescence counter (TopCount; Packard Instruments, Meriden, Conn.). […]

For test [4], the system named is osteoclast precursors. The test is described as follows: Osteoclastogenesis (TRAP-positive multinucleated cells). To be noted: M-CSF 20 ng/ml and sRANKL 50 ng/ml, 8 days. The format is cell-based, rat. Here is the method:
Osteoclastogenesis: Bone marrow cells were prepared by removing femurs from 6–8-week-old SD rats and flushing the bone marrow cavity with DMEM which was supplemented with 20 mM HEPES and 10% heat-inactivated FCS, 2 mM-glutamine, penicillin (100 U/ml) and streptomycin (100 μg/ml). After 24 hr, the non-adherent cells (hematopoietic cells) were collected and used as osteoclast precursors. The cells were seeded at 1×10^6 cells/well (0.5 ml) in 24-well plates in the presence of human recombinant soluble RANKL (50 ng/ml, Peprotech EC Ltd., London, United Kingdom) and murine M-CSF (20 ng/ml, Genzyme, Cambridge, Mass.). The culture medium was changed every 3 days. After 8˜10 days, osteoclast formation was confirmed by an assay of tartrate-resistant acid phosphatase (TRAP) (Kotake et al., 1999). In brief, the adherent cells were fixed with 10% formaldehyde in phosphate-buffered saline for 3 min. After treatment with ethanol/acetone (50:50 v/v) for 1 min, the cell surface was air dried and incubated for 10 min at room temperature in an acetate buffer (0.1 M sodium acetate, pH 5.0) containing 0.01% naphthol AS-MX phosphate (Sigma) and 0.03% fast red violet LB salt (Sigmna) in the presence of 50 mM sodium tartrate. Osteoclast-like TRAP-positive cells in each well were scored by counting the number of TRAP-positive and multinucleated cells containing more than three nuclei.

[5] abbreviates: femurs, OVX rats, i.p. 1 mg/kg daily for 4 weeks.

In test [1] (setting [5]), `OCc1ccc(-c2nn(Cc3ccccc3)c3ccccc23)o1` [Indazole 1, 1-benzyl-3-(5′-hydroxymethyl-2′-furyl)-indazole] came in with a Maximal load of 100.5 ± 3.0 N, a Ultimate load of 79.8 ± 3.3 N and a Ultimate stress of 14.6 ± 2.5 Mpa. For the same compound, the “ultimate stress and Young's modulus of femurs compared with sham-operated controls” value in test [1] (treated OVX rats) is given as “only slightly lower”. In addition, the “concentration dependence of the increase of ALP activity” value in test [2] was “concentration-dependent”. Further, the “ALP activity (ALP staining)” value in test [2] (10 μM for 2 weeks) was “significantly increased”. For the same compound, the proliferation of osteoblasts in test [3] (0.1 μM) is on record as 119.3 % of control. For the same compound, the proliferation of osteoblasts in test [3] (1 μM) is given as 126.1 % of control. Besides, the differentiation of osteoclast entry in test [4] is “inhibited the differentiation of osteoclast in a concentration-dependent manner”.
